Assay results taken from patent US9376499B2, “PAR-1 activation by metalloproteinase-1 (MMP-1)” (Tufts Medical Center, Inc., priority 2009, dated 2016).
No end group written: not given here.

Legend:
Rho-GTP = test: Collagen-induced Rho-GTP activity in platelets (western blot); assay type: cell-based, human; conditions: 5 or 20 μg/ml collagen or 10 nM MMP-1; ARC 0.5 μM, aspirin 1 mM
Procedure: In FIG. 5C, platelets were treated as in FIG. 5B and then Rho GTP activity was assessed by western blot.
Representative blots are shown at the bottom of FIGS. 5B-D. Data are the mean±s.d. of three experiments. P*<0.01, #<0.05.

p38 MAPK = test: Collagen-induced phospho-p38 MAPK in platelets (western blot); assay type: cell-based, human; conditions: 5 or 20 μg/ml collagen or 10 nM MMP-1; ARC 0.5 μM, aspirin 1 mM
Procedure: The effect of pharmacologic blockage of metalloproteases or PAR1 on collagen-dependent platelet aggregation was then tested (see FIG. 5). […] Platelets were pre-incubated for 5 min with the thrombin inhibitors PPACK (200 μM) or hirudin (1 U/ml), the Zn-chelator 1,10-phenanthroline (1,10-PA; 100 μM), the broad spectrum metalloprotease inhibitor MMP-200 (200 nM), the MMP-1 inhibitor FN-439 (3 μM), the PAR1 ligand binding site inhibitor RWJ-56110 (1 μM), the PAR1 blocking antibody (75 μg/ml), the PAR1 pepducin lipopeptides P1pal-12 (3 μM) or P1pal-7 (3 μM), the PAR4 pepducin lipopeptide P4pal-10 (3 μM), MMP-8 inhibitor (25 nM) or MMP9/13 inhibitor (10 nM).
In FIG. 5B, platelets were treated as in FIG. 5A and then lysed with Laemmli sample buffer 5 min after addition of collagen, p38 MAPK activity was then assessed by western blot with a p38 MAPK phospho-Ab and total p38 loading was determined using a p38 MAPK antibody.

PAR1 [1] = test: Release of PAR1 N-terminal cleavage peptide from gel-filtered platelets (dot blot, IIaR-A antibody); assay type: cell-based, human; conditions: 5 μg/ml collagen, 10 min, 37° C.; Ab 20 μg/ml; ARC 0.5 μM; ASA 1 mM
From the text: To further understand how collagen is able to activate significant amounts of endogenous MMP-1 collagenase activity on the surface of platelets, experiments were devised to determine if PAR-1 is cleaved in either an autocrine or paracrine manner following exposure to collagen. Using a monoclonal antibody raised against the amino-terminal thrombin-cleavage peptide region of PAR1, residues 32-46 (Loew et al., 2000), the relative abilities of thrombin, MMP-1 and collagen to cause cleavage of platelet PAR1 was assessed. Gel filtered platelets were treated for 10 min with thrombin (3 nM), MMP-1 (3 nM), collagen (5 μg/ml), in the presence or absence (PBS buffer) of 0.00013 U hirudin or 5 μM FN-439 at 37° C. Supernatants were concentrated 20-fold and applied to nitrocellulose membranes, then probed with the IIaR-A monoclonal antibody. The PAR1 N-terminal thrombin deavage peptide (A26-R41) and PAR1 flexible linker peptide (N-acetyl-T67-L84 -C) (Kuliopulos et al., 1999) served as positive and negative controls (100 ng), respectively.
These platelets were then stimulated with collagen (5 μg/ml) for 10 min. at 37° C. Supernatants were concentrated 20-fold and applied to nitrocellulose membranes, then probed with the IIaR-A monoclonal antibody. […] FN-439, or an MMP1-blocking antibody (20 μg/ml) but not by thrombin inhibitor, hirudin (see FIG. 1E, FIG. 1G).

platelets [2] = test: Collagen-dependent aggregation of gel-filtered human platelets (light transmittance); assay type: cell-based; conditions: for inhibition (loss) of collagen-induced platelet aggregation: 5 μg/ml collagen, 1,10-PA 100 μM, MMP-200 200 nM, FN-439 3 μM, RWJ-56110 1 μM, PAR1 Ab 75 μg/ml, pepducins 3 μM, PPACK 200 μM, hirudin 1 U/ml
Procedure: Platelet pellets and their supernatants were prepared as follows. […] following established informed consent procedures. […] Alternatively, whole blood was obtained from Hartley Sprague guinea pigs (drawn from the vena cava) into 3% citrate plus 10 U/ml heparin. Washed platelets from the guinea pigs were prepared in PIPES buffer. Platelet aggregation was measured with a Chronolog 560VS/490-2D aggregometer using modified PIPES buffer as a blank. Samples were incubated for 5 min in the presence of inhibitors and 1.8 mM CaCl2 prior to addition of agonist. All reactions were in final volumes of 250 μl at 37° C. while stirring at 900 rpm.
The effect of pharmacologic blockage of metalloproteases or PAR1 on collagen-dependent platelet aggregation was then tested (see FIG. 5). Gel-filtered platelets from healthy individuals (supplemented with 0.3 mg/ml fibrinogen) were challenged with 5 μg/ml collagen in the presence or absence (0.2% DMSO vehicle) of the indicated inhibitors and allowed to stir at 900 rpm in an aggregometer cuvette (250 μL) at 37° C.
In FIG. 5A, platelet aggregation was monitored by light transmittance.

PAR1 [3] = target: T1, PAR1 (Homo sapiens, UniProt P25116); test: Platelet shape change (decrease in light transmittance); assay type: cell-based; conditions: washed human platelets pretreated with 2 mM EGTA
T1 construct: able to cleave PAR1 on the surface of human platelets; endogenous in cells; host or cells: gel-filtered or washed human platelets
T1 sequence (P25116 22-425): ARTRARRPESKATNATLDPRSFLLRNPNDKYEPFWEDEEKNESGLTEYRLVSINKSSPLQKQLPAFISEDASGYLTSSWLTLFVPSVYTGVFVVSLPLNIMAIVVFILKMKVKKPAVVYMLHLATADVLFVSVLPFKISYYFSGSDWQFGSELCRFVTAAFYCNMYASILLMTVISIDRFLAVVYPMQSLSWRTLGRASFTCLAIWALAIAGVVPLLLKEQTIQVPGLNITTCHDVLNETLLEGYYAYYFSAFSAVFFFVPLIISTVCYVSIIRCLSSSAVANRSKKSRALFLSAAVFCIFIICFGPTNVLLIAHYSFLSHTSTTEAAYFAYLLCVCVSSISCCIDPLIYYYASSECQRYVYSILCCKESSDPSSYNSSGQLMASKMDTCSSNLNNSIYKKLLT
Procedure: In FIG. 3C, the ability of the […] peptide (PR-TRAP) to induce a change in platelet shape was determined. Washed human platelets were pretreated with 2 mM EGTA and then treated with the indicated agonists in the presence or absence of 1 μM RWJ-56110 while stirring at 1100 rpm. The decrease in light transmittance is an indication of the platelet shape change reaction.
In FIG. 4B, the ability of MMP-1 to induce platelet shape change was determined. Washed human platelets were pretreated with 2 mM EGTA and then challenged with MMP-1 in the presence or absence of 1 μM RWJ-56110 while stirring at 1100 rpm. Shape change was measured as described above.

PAR1 [4] = target: T1, PAR1; test: PAR1-dependent RhoA activation (Rho-GTP) in platelets by tethered-ligand peptides; assay type: cell-based; conditions: 30 μM peptide, 5 min, 37° C.
Procedure: Gel-filtered human platelets, supplemented with 0.3 mg/mL fibrinogen, were treated with 0.2% DMSO vehicle, or 30 μM SFLLRN (TRAP), PR-TRAP or reversed peptide (RP-TRAP), for 5 min at 37° C. in presence or absence of 1 μM RWJ-56110 as indicated. Platelets were lysed and Rho-GTP and total Rho was determined by Western analysis as described in the Experimental Procedures. Western bands were quantified by densitometry and results expressed relative to fold-increase from basal.

PAR1 [5] = target: T1, PAR1; test: p38 MAPK activation in platelets by tethered-ligand peptides; assay type: cell-based; conditions: 5 min, 37° C.
Procedure: In FIG. 3B, the effect of the […] peptide (PR-TRAP) on p38 MAPK in platelets was measured. Platelets were stimulated with different concentrations of PR-TRAP, RP-TRAP or TRAP as indicated for 5 min at 37° C. Platelets were lysed with Laemmli sample buffer and proteins assessed by Western blot of p38 MAPK activity with phospho-specific p38 MAPK antibody or total p38MAPK antibody.

[6] = Carotid artery FeCl3 injury arterial thrombosis model; assay type: in vivo, guinea pig; conditions: bivalirudin 0.18 mg/kg i.v.; from 13 min without
From the text: To assess the efficacy on arterial thrombosis by blockade of thrombin, MMP-1, or PAR1, a standard carotid artery FeCl3 injury model was used in guinea pigs. FeCl3 causes denudation of the artery and exposure of type I collagen and other subendothelial matrix proteins. The effects of blocking thrombin with bivalirudin, MMP-1 with FN-439, and PAR1 with either the small molecule antagonist RWJ-56110 or the P1pal-7 pepducin on arterial thrombosis were then compared using a dopier probe.
For these arterial thrombosis experiments, 10 min after i.v. administration of vehicle (−), bivalirudin, RWJ-56110, P1 pal-7 or FN-439 (n=4-5) through the jugular vein at the indicated concentrations, the right carotid arteries were injured for 20 min using a 24 mm^2 piece of Bio-Rad Trans-Blot paper soaked in 20% FeCl3. Arterial flow 5 mm distal to the site of injury was measured with a 0.5 V Doppler probe (Transonic Systems). An arterial occlusion was defined as a flow rate of <0.01 V for ≧5 min. Doppler measurements were terminated at the 30 min time point following injury (* designates p<0.05).

platelets [7] = test: Platelet thrombus formation on collagen surface under arterial flow, heparin-anticoagulated whole blood; assay type: cell-based, human; conditions: heparin 10 U/mL; shear rate 1,000 s-1; FN-439 3 μM, RWJ-56110 1 μM, pepducins 3 μM, aspirin 1 mM
Procedure: Following incubation with inhibitors, the blood was perfused over a glass slide coated with fibrillar collagen type I.
A flow chamber (Glycotech) with Type-I fibrillar collagen-coated glass slides was mounted on the stage of an IMT-2 inverted microscope (Olympus) equipped with Retiga 1300 digital camera (QImaging) and 40× objective. One of the flow chamber inlets was connected to a syringe pump (Harvard Apparatus) calibrated to create a shear rate of 1,000^s-1. The whole blood pretreated with the various pharmacologic inhibitors was then perfused over the collagen-coated glass slide. After 2-15 min of perfusion, blood was removed from the flow chamber by gentle displacement with PIPES buffer and images of 8-10 fields were acquired using OpenLab software (Improvision). Acquired images were further analyzed using NIH Image 1.63 software. Images were first sharpened and the edges of separate platelets and platelet aggregates were determined. Following the adjustment of threshold, images were converted into the binary format, and the particle analysis function was activated to highlight the regions covered by platelets with the sensitivity set to one single adherent thrombocyte. For the conversion of pixels into square micrometers, a calibration curve was built using 2.5, 6, 20, 25, and 45 μm polystyrene beads (Polyscience) using acquisition conditions identical to the experimental. The mean area of formed thrombus was determined at 7 min. Area measurements in FIG. 6B represent the mean±s.e. of three separate experiments from five different blood donors.

## CSCCNc1nc(SCCC(F)(F)F)nc2c1ncn2[C@@H]1O[C@H](COP(=O)(O)OP(=O)(O)C(Cl)(Cl)P(=O)(O)O)[C@@H](O)[C@H]1O [AR-C69931MX]
Rho-GTP
  effect on activation of Rho-GTP: no effect
p38 MAPK
  effect on activation of phospho-p38 MAPK: no effect
PAR1 [1]
  block of collagen-induced release of PAR1 N-terminal peptide: no effect
Platelets [2]; ARC 0.5 μM, aspirin 1 mM
  suppression of aggregation to collagen: could still suppress

## RP-TRAP: control peptide in which the first two amino acid residues were reversed (RPSFLLRN; PAR1 N-terminal extracellular mutant)
PAR1 [3]
  agonist activity, platelet shape change: did not stimulate
PAR1 [4]
  agonist activity, PAR1-dependent Rho signaling in platelets: did not stimulate
PAR1 [5]
  agonist activity, p38 MAPK signaling in platelets: did not stimulate

## Bivalirudin: thrombin inhibitor (Angiomax)
[6]
  mean arterial occlusion time: 20 min

## c1cnc2c(c1)ccc1cccnc12 [1,10-phenanthroline]
Platelets [2]
  inhibition (loss) of collagen-induced platelet aggregation: 80%

## R-TRAP: peptide corresponding to cleavage at LDP40↓R41SFLLRN (RSFLLRN)
PAR1 [3]
  agonist activity, platelet shape change: partial agonist activity

## P1pal-12: PAR1 i3 loop pepducin lipopeptide, RCLSSSAVANRS (SEQ ID NO. 3), palmitate (also: palmitate, site not given here)
Platelets [7]
  attenuation of growth rate and size of platelet aggregate strings: ~75%
Platelets [2]
  inhibition (loss) of collagen-induced platelet aggregation: identical levels of inhibition as blocking MMP-1

## DPR-TRAP: peptide corresponding to cleavage at L38↓D39PRSFLLRN (DPRSFLLRN; PAR1 N-terminal extracellular mutant)
PAR1 [3]
  agonist activity, platelet shape change: nearly no activity

## NC(N)=NCCC[C@H](NC(=O)[C@@H]1CCCN1C(=O)[C@H](N)Cc1ccccc1)C(=O)CCl [PPACK]
Platelets [2]
  inhibition (loss) of collagen-induced platelet aggregation: no effect

## PR-TRAP: synthetic peptide PRSFLLRN (SEQ ID NO:1), MMP1-generated tethered ligand of PAR1 (listed as Homo sapiens)
PAR1 [3]
  agonist activity, platelet shape change: activated changes in platelet shape
PAR1 [4]
  agonist activity, PAR1-dependent Rho signaling in platelets: full agonist
PAR1 [5]
  agonist activity, p38 MAPK signaling in platelets: full agonist

## P4pal-10: PAR4 pepducin lipopeptide (SGRRYGHALR; also: lipopeptide ('pal'), lipid and site not given here)
Platelets [2]
  inhibition (loss) of collagen-induced platelet aggregation: ~10%
